# Test results: patent US20250352520A1, “USE OF DEXPRAMIPEXOLE FOR THE TREATMENT OF EOSINOPHILIC COPD” (Areteia Therapeutics, Inc., priority 2024, published 2025)
# Where two headings read alike, the source gives them in different places.
# Conditions: for CT Scan - Small Airways Disease, Change from Baseline / CT Scan - Small Airways Disease, Result / CT Scan Parametric Imaging - Emphysema, Change from Baseline / CT Scan Parametric Imaging - Emphysema, Result / CT Scan - Air Trapping Index -856 HU, Change from Baseline / CT Scan - Air Trapping Index -856 HU, Result: Week 16; for CT Scan - Air Trapping Index -856 HU, Change from Baseline: first Change column under heads Inspiratory | Expiratory; for CT Scan - Air Trapping Index -856 HU, Result: first Result column under heads Inspiratory | Expiratory
# Text: All eligible participants received inspiratory and expiratory CT scans at Baseline and at Week 16 to assess for changes in mucus plugs and airway architecture (e.g., changes in airway wall thickness).
structure (smiles),measurement,setting,value
"CCCN[C@@H]1CCc2nc(N)sc2C1 [Dexpramipexole, (6R)-2-amino-4,5,6,7-tetrahydro-6-(propylamino)benzothiazole]","CT Scan - Small Airways Disease, Change from Baseline",Subject ID 10001-001-0001,−7.12
same,"CT Scan - Small Airways Disease, Result",Subject ID 10001-001-0001,25.72
same,"CT Scan Parametric Imaging - Emphysema, Change from Baseline",Subject ID 10001-001-0001,2.41
same,"CT Scan Parametric Imaging - Emphysema, Result",Subject ID 10001-001-0001,36.28
same,"CT Scan - Air Trapping Index -856 HU, Change from Baseline",Subject ID 10001-001-0001,−0.29%
same,"CT Scan - Air Trapping Index -856 HU, Result",Subject ID 10001-001-0001,49.57%
same,"CT Scan - Small Airways Disease, Change from Baseline",Subject ID 10001-008-0002,2.18
same,"CT Scan - Small Airways Disease, Result",Subject ID 10001-008-0002,51.14
same,"CT Scan Parametric Imaging - Emphysema, Change from Baseline",Subject ID 10001-008-0002,−0.73
same,"CT Scan Parametric Imaging - Emphysema, Result",Subject ID 10001-008-0002,35.88
same,"CT Scan - Air Trapping Index -856 HU, Change from Baseline",Subject ID 10001-008-0002,0.57%
same,"CT Scan - Air Trapping Index -856 HU, Result",Subject ID 10001-008-0002,68.06%
same,"CT Scan - Small Airways Disease, Change from Baseline",Subject ID 10001-010-0005,−3.80
same,"CT Scan - Small Airways Disease, Result",Subject ID 10001-010-0005,39.08
same,"CT Scan Parametric Imaging - Emphysema, Change from Baseline",Subject ID 10001-010-0005,0.16
same,"CT Scan Parametric Imaging - Emphysema, Result",Subject ID 10001-010-0005,12.11
same,"CT Scan - Air Trapping Index -856 HU, Change from Baseline",Subject ID 10001-010-0005,−2.18%
same,"CT Scan - Air Trapping Index -856 HU, Result",Subject ID 10001-010-0005,29.57%
same,"CT Scan - Small Airways Disease, Change from Baseline",Subject ID 10001-022-0001,−4.12
same,"CT Scan - Small Airways Disease, Result",Subject ID 10001-022-0001,46.36
same,"CT Scan Parametric Imaging - Emphysema, Change from Baseline",Subject ID 10001-022-0001,−4.75
same,"CT Scan Parametric Imaging - Emphysema, Result",Subject ID 10001-022-0001,8.59
same,"CT Scan - Air Trapping Index -856 HU, Change from Baseline",Subject ID 10001-022-0001,−11.40%
same,"CT Scan - Air Trapping Index -856 HU, Result",Subject ID 10001-022-0001,27.88%
same,CT scoring for small airway disease,all patients,All patients showed an improvement in scoring
same,"CT scoring for Air Trapping, change",one patient,−11.40
same,"CT scoring for emphysema, decrease",one patient,4.75 points
same,"CT scoring for small airway disease, improvement",one patient,7.12 points
